Solubility of drospirenone data for 1 compound are collected here from patent publication US20090181075A1, “DROSPIRENONE CONTAINING TRANSDERMAL DRUG DELIVERY DEVICES AND METHODS OF DELIVERY THEREOF” (priority 2005, published 2009).

The structures appear in SMILES notation.

This series can be described thus: Drospirenone solubility in liquid excipients. In kind it is physicochemical. To be noted: weight-weight basis. The method, then: The solubility of drospirenone in liquid excipients was obtained using the following test method. Drospirenone was incrementally added to excipient until it stopped dissolving. The saturated solution was then filtered through a 0.45 μm polytetrafluoroethylene filter to remove excess drug particles. The concentration of drospirenone was then analyzed for drug using conventional high performance liquid chromatography methods. The values are reported as the percent solubility on a weight-weight basis.

Compound `C[C@]12CCC(=O)C=C1[C@@H]1C[C@@H]1[C@H]1[C@@H]3[C@@H]4C[C@@H]4[C@@]4(CCC(=O)O4)[C@@]3(C)CC[C@@H]12` [drospirenone, 6β,7β,15β,16β-dimethylene-3-oxo-17α-pregn-4-ene-21,17-carbolactone] yielded a solubility of drospirenone (in benzyl alcohol) of 44.4%; a solubility of drospirenone (in benzyl lactate) of 22.6%; a solubility of drospirenone (in glyceryl monooleate) of 2.0%; a solubility of drospirenone (in lauryl alcohol) of 1.0%; a solubility of drospirenone (in lauryl lactate) of 1.4%; a solubility of drospirenone (in methyl lactate) of 11.6%. Under “in methyl laurate”, this compound came in with a solubility of drospirenone of 0.6%.
